IC50 data for 47 compounds are collected here from BindingDB's records for patent US20250352549 (Avelos Therapeutics, 2025).

This experiment deals with T1, Serine/threonine-protein kinase greatwall (Human, UniProt Q96GX5).
T1 sequence (Q96GX5 whole entry): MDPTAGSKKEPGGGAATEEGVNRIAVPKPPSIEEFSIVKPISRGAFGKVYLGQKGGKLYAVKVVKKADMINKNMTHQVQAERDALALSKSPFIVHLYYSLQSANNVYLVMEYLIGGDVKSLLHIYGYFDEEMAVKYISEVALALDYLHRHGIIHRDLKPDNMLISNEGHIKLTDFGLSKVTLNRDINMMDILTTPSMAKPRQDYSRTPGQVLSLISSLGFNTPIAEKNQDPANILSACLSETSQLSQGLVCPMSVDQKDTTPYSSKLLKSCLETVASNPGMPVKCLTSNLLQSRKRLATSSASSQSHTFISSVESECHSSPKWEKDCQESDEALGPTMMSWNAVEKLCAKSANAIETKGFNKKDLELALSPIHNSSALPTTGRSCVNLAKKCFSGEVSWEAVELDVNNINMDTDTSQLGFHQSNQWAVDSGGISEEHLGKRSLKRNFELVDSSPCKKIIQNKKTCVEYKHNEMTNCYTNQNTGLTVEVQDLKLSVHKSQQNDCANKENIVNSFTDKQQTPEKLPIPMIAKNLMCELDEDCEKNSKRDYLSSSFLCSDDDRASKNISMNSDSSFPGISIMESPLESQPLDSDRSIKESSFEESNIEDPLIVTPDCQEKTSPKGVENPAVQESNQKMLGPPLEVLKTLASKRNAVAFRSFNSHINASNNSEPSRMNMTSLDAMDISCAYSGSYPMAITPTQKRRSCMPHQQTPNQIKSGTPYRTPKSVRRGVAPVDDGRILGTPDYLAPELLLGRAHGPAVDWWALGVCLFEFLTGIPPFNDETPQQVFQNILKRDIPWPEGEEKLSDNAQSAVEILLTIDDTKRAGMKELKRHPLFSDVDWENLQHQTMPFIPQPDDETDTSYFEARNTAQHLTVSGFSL
In words: MASTL Activity Assay. Here is the method:
Wild-type human active MASTL (154 pM) was incubated in assay buffer (50 mM HEPES, 100 mM NaCl, 0.1 mM EGTA, 10 mM MgCl2, 0.01% Tween-20, 0.5 mM TCEP, pH 7.5) with biotin tagged 40-mer ENSA peptide (10 nM), test compound and ATP (18 μM) for 60 minutes at room temperature. Test compounds were assayed using a 12-point dose range consisting of a 0, DMSO control and 10 sequential doses consisting from 0.0005, 0.002, 0.005, 0.014, 0.04, 0.12, 0.37, 1.11, 3.33 and 10 μM. The DMSO concentration was the same (1%) in all samples. An equal volume of detection buffer (assay buffer+267.5 pM Ab-K, 1.25 nM SA-D2, 20 mM EDTA and 400 mM KF) was added to stop the reaction to make a final volume of 20 μl, RT for 60 mins. Activity was measured using a plate reader (PerkinElmer EnSight) by the FRET signal generated between SA-D2 (streptavidin-D2) and Ab-K (anti-phospho-Serine 67 ENSA antibody (rabbit polyclonal, using standard techniques by a commercial supplier) conjugated to Cryptate). HTRF reagents (CisBio) were prepared as per the manufacturer recommendations. The 40-mer biotin-tagged ENSA peptide (synthesised by Bionics) used was based around Serine 67 on ENSA ([…]).
As a reminder, the IC50 is the concentration that inhibits the measured activity by half. Read a low IC50 as higher potency. In turn, `CC(C)(Nc1nc(N)nc(-c2ccc3cnc(N)n3c2)n1)c1ccn(C(F)F)n1` [US20250352549, Example 10] gave a 50% inhibitory concentration (IC50) below 500 nM.

In turn, `Cc1n[nH]c2ccc(-c3nc(N)nc(NC(c4c[nH]c(C(F)(F)F)n4)C(C)C)n3)cc12` (configuration not stated) [US20250352549, Example 35] gave an IC50 below 500 nM.

The compound `Cc1ncc2ncc(-c3nc(N)nc(NC(C)(C)c4ccn(C(F)F)n4)n3)cn12` [US20250352549, Example 1] had an IC50 below 500 nM. As to `Cc1ncc2ccc(-c3nc(N)nc(N(C)C(c4cn(C)c(C(F)(F)F)n4)C(C)C)n3)cn12` (configuration not stated) [US20250352549, Example 169], the IC50 entry is “in the range around 750 nM”. The result for `Cc1nn(C)c2cc(-c3nc(N)nc(NC(c4c[nH]c(C(F)(F)F)n4)C(C)C)n3)ccc12` (configuration not stated) [US20250352549, Example 44] reads below 500 nM. Turning to `Cc1ncc2ccc(-c3nc(N)nc(N(C)Cc4cccc(F)c4Cl)n3)cn12` [US20250352549, Example 162], the IC50 result was “in the range around 750 nM”. With `CNc1nc(NC(c2ccn(C(F)F)n2)C(C)C)nc(-c2ccc3[nH]ncc3c2)n1` (configuration not stated) [US20250352549, Example 27], the IC50 was below 500 nM.

In the case of `CC(=O)N(C)C(CNc1cc(-c2ccc3cnc(C)n3c2)nc(N)n1)c1cccc(Cl)c1Cl` (configuration not stated) [US20250352549, Example 19], the IC50 was below 500 nM. `CC(C)(Nc1nc(N)nc(-c2ccc3cnc(O)n3c2)n1)c1ccn(C(F)F)n1` [US20250352549, Example 38] registered an IC50 above 1000 nM. The value for `Nc1nc(NCCc2ccc(Cl)c(F)c2F)nc(-c2ccc3cnc(N)n3c2)n1` [US20250352549, Example 42] was below 500 nM; that for `Cc1ncc2ccc(-c3nc(N)nc(NC(c4c[nH]c(C(F)(F)F)n4)C4CC4)n3)cn12` (configuration not stated) [US20250352549, Example 154] was below 500 nM; that for `Cc1ncc2ccc(-c3nc(N)nc(N(C)Cc4c[nH]c(C(F)(F)F)n4)n3)cn12` [US20250352549, Example 164] was below 500 nM. `CC(C)C(Nc1nc(N)nc(-c2ccc3c(F)nn(C)c3c2)n1)c1c[nH]c(C(F)(F)F)n1` (configuration not stated) [US20250352549, Example 45] displayed a 50% inhibitory concentration (IC50) below 500 nM. Compound `[2H]C([2H])([2H])n1ncc2ccc(-c3nc(N)nc(NC(C)(C)c4ccn(C(F)F)n4)n3)cc21` [US20250352549, Example 9] displayed an IC50 below 500 nM.

`Cc1ncc2ccc(-c3nc(N)nc(NC(Cc4cccc(Cl)c4Cl)c4nc[nH]n4)n3)cn12` (configuration not stated) [US20250352549, Example 22] displayed a half-maximal inhibitory concentration (IC50) below 500 nM.

`Cc1ncc2ccc(-c3nc(N)nc(NC(c4nnc(C(F)(F)F)o4)C(C)C)n3)cn12` (configuration not stated) [US20250352549, Example 166] displayed a concentration for half-maximal inhibition (IC50) above 1000 nM. As for `Cc1ncc2ccc(-c3nc(N)nc(NC(C)c4ccc(F)cn4)n3)cn12` (configuration not stated) [US20250352549, Example 139], the IC50 is below 500 nM.

Take `Cc1ncc2ccc(-c3nc(N)nc(NCc4c[nH]c(C(F)(F)F)n4)n3)cn12` [US20250352549, Example 151]: the concentration for half-maximal inhibition (IC50) is below 500 nM. `CNc1nc(NC(Cc2cccc(Cl)c2Cl)C(=O)O)cc(-c2ccc3cnc(C)n3c2)n1` (configuration not stated) [US20250352549, Example 145] showed a half-inhibitory concentration (IC50) below 500 nM. Compound `CNc1nc(NC(C)(C)c2ccn(C(F)F)n2)nc(-c2ccc3[nH]ncc3c2)n1` [US20250352549, Example 26] came in with an IC50 below 500 nM. The compound `CCC(Nc1nc(N)nc(-c2ccc3cnc(C)n3c2)n1)c1ccc(F)cn1` (configuration not stated) [US20250352549, Example 140] displayed a concentration for half-maximal inhibition (IC50) below 500 nM. For `CC(C)(Nc1nc(N)nc(-c2ccc3cnc(N)n3c2)n1)c1c[nH]c(C(F)(F)F)n1` [US20250352549, Example 11], the concentration for half-maximal inhibition (IC50) is below 500 nM. Turning to `Nc1nc(NC(c2ccn(C(F)F)n2)C2CC2)nc(-c2ccc3[nH]ncc3c2)n1` (configuration not stated) [US20250352549, Example 33], the IC50 was below 500 nM. Compound `Cc1ncc2ccc(-c3nc(N)nc(NC(c4ccc(CN)cn4)C(C)C)n3)cn12` (configuration not stated) [US20250352549, Example 178] showed an IC50 below 500 nM. `[2H]C([2H])([2H])Nc1nc(NC(CC)c2c[nH]c(C(F)(F)F)n2)nc(-c2ccc3cnc(C)n3c2)n1` (configuration not stated) [US20250352549, Example 5] showed an IC50 below 500 nM.

As for `Cn1ncc2cc(-c3nc(N)nc(NC(C)(C)c4ccn(C(F)F)n4)n3)ccc21` [US20250352549, Example 48], the concentration for half-maximal inhibition (IC50) was below 500 nM. Compound `Cc1nc(C)n2cc(-c3nc(N)nc(NC(c4c[nH]c(C(F)(F)F)n4)C(C)C)n3)ccc12` (configuration not stated) [US20250352549, Example 181] had an IC50 below 500 nM.

For the compound `Cc1ncc2ccc(-c3nc(N)nc(NC(C)(C)c4nc(C(F)(F)F)no4)n3)cn12` [US20250352549, Example 160], the 50% inhibitory concentration (IC50) result was “in the range around 750 nM”.

In turn, `Cc1ncc2ccc(-c3nc(N)nc(NC(c4cn(C)c(C(F)(F)F)n4)C(C)C)n3)cn12` (configuration not stated) [US20250352549, Example 165] gave a concentration for half-maximal inhibition (IC50) below 500 nM.

For `[2H]C([2H])([2H])n1ncc2ccc(-c3cc(NC(C)(C)Cn4ccc(C(F)(F)F)n4)nc(N)n3)cc21` [US20250352549, Example 40], the IC50 was below 500 nM. The compound `Cc1ncc2ncc(-c3nc(N)nc(NC(C)(C)c4ccn(C(F)F)n4)n3)cn12` [US20250352549, Example 13] had an IC50 above 1000 nM.

For the compound `CCC(Nc1nc(N)nc(-c2ccc3cn[nH]c3c2)n1)c1c[nH]c(C(F)(F)F)n1` (configuration not stated) [US20250352549, Example 157], the concentration for half-maximal inhibition (IC50) is below 500 nM. In turn, `[2H]C([2H])([2H])n1ncc2ccc(-c3nc(N)nc(NC(C)(C)Cc4cccc(F)n4)n3)cc21` [US20250352549, Example 36] yielded an IC50 below 500 nM.

Compound `Cc1ncc2ccc(-c3nc(N)nc(NC(c4ccccc4)c4c[nH]c(C(F)(F)F)n4)n3)cn12` (configuration not stated) [US20250352549, Example 2] registered an IC50 above 1000 nM. The value for `CC(C)CC(Nc1nc(N)nc(-c2ccc3cn[nH]c3c2)n1)c1c[nH]c(C(F)(F)F)n1` (configuration not stated) [US20250352549, Example 179] was below 500 nM.

In the case of `Cc1ncc2ccc(-c3nc(N)nc(N(C)C(c4c[nH]c(C(F)(F)F)n4)C(C)C)n3)cn12` (configuration not stated) [US20250352549, Example 161], the IC50 result is “in the range around 750 nM”.

For `[2H]C([2H])([2H])n1ncc2ccc(-c3nc(N)nc(NC(c4c[nH]c(C(F)(F)F)n4)C(C)C)n3)cc21` (configuration not stated) [US20250352549, Example 28], the IC50 is below 500 nM.

`COC(=O)C(Cc1cccc(Cl)c1Cl)Nc1cc(-c2ccc3cnc(C)n3c2)nc(N)n1` (configuration not stated) [US20250352549, Example 3] had a half-maximal inhibitory concentration (IC50) below 500 nM.

In turn, `CNc1nc(NC(Cc2cccc(Cl)c2Cl)C(=O)O)nc(-c2ccc3cnc(C)n3c2)n1` (configuration not stated) [US20250352549, Example 138] registered an IC50 below 500 nM.

`Cc1ncc2ccc(-c3nc(N)nc(N(C)Cc4cccc(Cl)c4F)n3)cn12` [US20250352549, Example 163] came in with a 50% inhibitory concentration (IC50) below 500 nM. As to `CNc1ncc2ccc(-c3nc(N)nc(NC(C)(C)c4ccn(C(F)F)n4)n3)cn12` [US20250352549, Example 37], the IC50 is below 500 nM.

As for `Cc1nc(F)c2ccc(-c3nc(N)nc(NC(c4c[nH]c(C(F)(F)F)n4)C(C)C)n3)cn12` (configuration not stated) [US20250352549, Example 147], the IC50 is below 500 nM. The value for `CC(C)C(Nc1nc(N)nc(-c2ccc3c(cnn3C)c2)n1)c1c[nH]c(C(F)(F)F)n1` (configuration not stated) [US20250352549, Example 34] was below 500 nM; that for `Cc1ncc2ccc(-c3nc(N)nc(NC(c4nc(C(F)(F)F)no4)C(C)C)n3)cn12` (configuration not stated) [US20250352549, Example 158] was above 1000 nM; that for `CNc1nc(NC(C)(C)c2ccn(C(F)F)n2)nc(-c2ccc3cnc(C)n3c2)n1` [US20250352549, Example 135] was below 500 nM. The compound `Cc1ncc2ccc(-c3nc(N)nc(NC(c4ccc(C#N)cn4)C(C)C)n3)cn12` (configuration not stated) [US20250352549, Example 168] gave an IC50 above 1000 nM. In the case of `CC(C)C(Nc1nc(N)nc(-c2ccc3cn[nH]c3c2)n1)c1c[nH]c(C(F)(F)F)n1` (configuration not stated) [US20250352549, Example 156], the IC50 is below 500 nM.
